Values of other authors, collected in US8859560B2, “Treating attention deficit hyperactivity disorder with NHE inhibitors” (The Research Foundation of State University of New York, priority 2012, dated 2014).

Columns and labels:
[1] = test system: sodium/hydrogen exchanger (NHE) subtypes; conditions: for NHE subtype selectivity of inhibition: prior knowledge from Masereel et al. 2003
[2] = pediatric patients, extended-release tablets (Jain et al. 2011)

COc1ccc2c3c([nH]c2c1)C(C)=NCC3 [harmaline]
NHE subtype selectivity of inhibition [1]: selectively inhibits NHE5

C=C[C@H]1C[N@@]2CC[C@H]1C[C@H]2[C@H](O)c1ccnc2ccc(OC)cc12 [quinine]
NHE subtype selectivity of inhibition [1]: selectively inhibits NHE7

N=C(N)NC(=O)c1nc(Cl)c(N)nc1N [amiloride]
NHE subtype selectivity of inhibition [1]: limited NHE subtype selectivity

CC(=Cc1cc(C)ccc1C=C(C)C(=O)NC(=N)N)C(=O)N=C(C)C [S3226]
NHE subtype selectivity of inhibition [1]: selectively inhibits NHE3

Clc1cccc(Cl)c1N=C1NCCN1 [clonidine]
Efficacy as drug for ADHD [2]: moderately efficacious
Inhibition of plasma membrane NHEs ([1]; plasma membrane NHEs (NHE1-NHE5)): modest inhibitor

CC(C)c1ccc(C(=O)NC(=N)N)cc1S(C)(=O)=O [cariporide]
NHE subtype selectivity of inhibition [1]: selectively inhibits NHE1
